Experimental data published in the supplement of paper PMC10307832.

Legend:
Experiment in all cases: relative viability (nuclei count vs DMSO), 5 days (fraction); higher = more cells survive
NCI-H1650 = system: NCI-H1650
Outline: (§1)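 Relative viability was taken as the ratio of nuclei in treated wells to nuclei in vehicle wells. Lung cancer cell lines in 1536-well plates received compounds by pin tool one day after seeding, either one drug alone or a fixed anchor-drug dose plus five library-drug doses (not always all listed) in √10 steps. Nuclei were counted on 4× images after 5 days of treatment, and values are medians of duplicate plates.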

NCI-H441 = system: NCI-H441
Outline: as §1

LC-2-ad = system: LC-2-ad
Outline: as §1

LCLC-97TM1 = system: LCLC-97TM1
Outline: as §1

PC-3 [JPC-3] = system: PC-3 [JPC-3]
Outline: as §1

CAL-12T = system: CAL-12T
Outline: as §1

NCI-H2087 = system: NCI-H2087
Outline: as §1

NCI-H2023 = system: NCI-H2023
Outline: as §1

201T = system: 201T
Outline: as §1

BEN = system: BEN
Outline: as §1

H3255 = system: H3255
Outline: as §1

NCI-H661 = system: NCI-H661
Outline: as §1

NCI-H1651 = system: NCI-H1651
Outline: as §1

NCI-H650 = system: NCI-H650
Outline: as §1

NCI-H596 = system: NCI-H596
Outline: as §1

NCI-H460 = system: NCI-H460
Outline: as §1

NCI-H727 = system: NCI-H727
Outline: as §1

NCI-H520 = system: NCI-H520
Outline: as §1

ABC-1 = system: ABC-1
Outline: as §1

NCI-H1915 = system: NCI-H1915
Outline: as §1

NCI-H1944 = system: NCI-H1944
Outline: as §1

A-427 = system: A-427
Outline: as §1

Compound: CC(=O)O[C@@]12CO[C@@H]1C[C@H](O)[C@@]1(C)C(=O)[C@H](O)C3=C(C)[C@@H](OC(=O)[C@H](O)[C@@H](NC(=O)OC(C)(C)C)c4ccccc4)C[C@@](O)([C@@H](OC(=O)c4ccccc4)[C@H]21)C3(C)C [Docetaxel] + N=C(N)NC(=N)NCCc1ccccc1 [Phenformin] (partner 250 µM)
- relative viability (NCI-H1650; first compound 0.0002 µM): 0.349
- relative viability (NCI-H1650; first compound 0.000632 µM): 0.287
- relative viability (NCI-H1650; first compound 0.006325 µM): 0.147
- relative viability (NCI-H1650; first compound 0.02 µM): 0.0956
- relative viability (NCI-H441; first compound 0.0002 µM): 0.833
- relative viability (NCI-H441; first compound 0.000632 µM): 0.889
- relative viability (NCI-H441; first compound 0.002 µM): 0.315
- relative viability (NCI-H441; first compound 0.006325 µM): 0.281
- relative viability (NCI-H441; first compound 0.02 µM): 0.197
- relative viability (LC-2-ad; first compound 0.0002 µM): 0.497
- relative viability (LC-2-ad; first compound 0.000632 µM): 0.494
- relative viability (LC-2-ad; first compound 0.002 µM): 0.327
- relative viability (LC-2-ad; first compound 0.006325 µM): 0.243
- relative viability (LCLC-97TM1; first compound 0.0002 µM): 0.403
- relative viability (LCLC-97TM1; first compound 0.000632 µM): 0.366
- relative viability (LCLC-97TM1; first compound 0.002 µM): 0.267
- relative viability (LCLC-97TM1; first compound 0.006325 µM): 0.162
- relative viability (LCLC-97TM1; first compound 0.02 µM): 0.131
- relative viability (PC-3 [JPC-3]; first compound 0.0002 µM): 0.484
- relative viability (PC-3 [JPC-3]; first compound 0.000632 µM): 0.48
- relative viability (PC-3 [JPC-3]; first compound 0.002 µM): 0.371
- relative viability (PC-3 [JPC-3]; first compound 0.006325 µM): 0.246
- relative viability (PC-3 [JPC-3]; first compound 0.02 µM): 0.138
- relative viability (CAL-12T; first compound 0.0002 µM): 0.522
- relative viability (CAL-12T; first compound 0.000632 µM): 0.305
- relative viability (CAL-12T; first compound 0.002 µM): 0.185
- relative viability (CAL-12T; first compound 0.006325 µM): 0.135
- relative viability (CAL-12T; first compound 0.02 µM): 0.118
- relative viability (NCI-H2087; first compound 0.0002 µM): 0.44
- relative viability (NCI-H2087; first compound 0.000632 µM): 0.38
- relative viability (NCI-H2087; first compound 0.002 µM): 0.152
- relative viability (NCI-H2087; first compound 0.006325 µM): 0.159
- relative viability (NCI-H2087; first compound 0.02 µM): 0.0907
- relative viability (NCI-H2023; first compound 0.0002 µM): 0.358
- relative viability (NCI-H2023; first compound 0.000632 µM): 0.292
- relative viability (NCI-H2023; first compound 0.002 µM): 0.118
- relative viability (NCI-H2023; first compound 0.006325 µM): 0.0961
- relative viability (NCI-H2023; first compound 0.02 µM): 0.0806
- relative viability (201T; first compound 0.0002 µM): 0.4
- relative viability (201T; first compound 0.000632 µM): 0.366
- relative viability (201T; first compound 0.002 µM): 0.36
- relative viability (201T; first compound 0.006325 µM): 0.342
- relative viability (201T; first compound 0.02 µM): 0.242
- relative viability (BEN; first compound 0.0002 µM): 0.248
- relative viability (BEN; first compound 0.000632 µM): 0.253
- relative viability (BEN; first compound 0.002 µM): 0.307
- relative viability (BEN; first compound 0.006325 µM): 0.215
- relative viability (BEN; first compound 0.02 µM): 0.194
- relative viability (H3255; first compound 0.0002 µM): 0.353
- relative viability (H3255; first compound 0.000632 µM): 0.349
- relative viability (H3255; first compound 0.002 µM): 0.312
- relative viability (H3255; first compound 0.006325 µM): 0.357
- relative viability (H3255; first compound 0.02 µM): 0.259
- relative viability (NCI-H661; first compound 0.0002 µM): 0.334
- relative viability (NCI-H661; first compound 0.000632 µM): 0.32
- relative viability (NCI-H661; first compound 0.002 µM): 0.317
- relative viability (NCI-H661; first compound 0.006325 µM): 0.267
- relative viability (NCI-H661; first compound 0.02 µM): 0.221
- relative viability (NCI-H1651; first compound 0.0002 µM): 0.266
- relative viability (NCI-H1651; first compound 0.000632 µM): 0.342
- relative viability (NCI-H1651; first compound 0.002 µM): 0.194
- relative viability (NCI-H1651; first compound 0.006325 µM): 0.087
- relative viability (NCI-H1651; first compound 0.02 µM): 0.0897
- relative viability (NCI-H650; first compound 0.0002 µM): 0.447
- relative viability (NCI-H650; first compound 0.000632 µM): 0.397
- relative viability (NCI-H650; first compound 0.002 µM): 0.332
- relative viability (NCI-H650; first compound 0.006325 µM): 0.19
- relative viability (NCI-H650; first compound 0.02 µM): 0.21
- relative viability (NCI-H596; first compound 0.0002 µM): 0.827
- relative viability (NCI-H596; first compound 0.000632 µM): 0.773
- relative viability (NCI-H596; first compound 0.002 µM): 0.635
- relative viability (NCI-H596; first compound 0.006325 µM): 0.438
- relative viability (NCI-H596; first compound 0.02 µM): 0.235
- relative viability (NCI-H460; first compound 0.0002 µM): 0.481
- relative viability (NCI-H460; first compound 0.000632 µM): 0.351
- relative viability (NCI-H460; first compound 0.002 µM): 0.0311
- relative viability (NCI-H460; first compound 0.006325 µM): 0.0221
- relative viability (NCI-H460; first compound 0.02 µM): 0.0125
- relative viability (NCI-H727; first compound 0.0002 µM): 0.49
- relative viability (NCI-H727; first compound 0.000632 µM): 0.601
- relative viability (NCI-H727; first compound 0.002 µM): 0.457
- relative viability (NCI-H727; first compound 0.006325 µM): 0.472
- relative viability (NCI-H727; first compound 0.02 µM): 0.354
- relative viability (NCI-H520; first compound 0.0002 µM): 0.585
- relative viability (NCI-H520; first compound 0.000632 µM): 0.604
- relative viability (NCI-H520; first compound 0.002 µM): 0.37
- relative viability (NCI-H520; first compound 0.006325 µM): 0.255
- relative viability (NCI-H520; first compound 0.02 µM): 0.148
- relative viability (ABC-1; first compound 0.0002 µM): 0.27
- relative viability (ABC-1; first compound 0.000632 µM): 0.226
- relative viability (ABC-1; first compound 0.002 µM): 0.232
- relative viability (ABC-1; first compound 0.006325 µM): 0.223
- relative viability (ABC-1; first compound 0.02 µM): 0.212
- relative viability (NCI-H1915; first compound 0.0002 µM): 0.364
- relative viability (NCI-H1915; first compound 0.000632 µM): 0.312
- relative viability (NCI-H1915; first compound 0.002 µM): 0.21
- relative viability (NCI-H1915; first compound 0.006325 µM): 0.147
- relative viability (NCI-H1915; first compound 0.02 µM): 0.116
- relative viability (NCI-H1944; first compound 0.0002 µM): 0.182
- relative viability (NCI-H1944; first compound 0.000632 µM): 0.188
- relative viability (NCI-H1944; first compound 0.002 µM): 0.163
- relative viability (NCI-H1944; first compound 0.006325 µM): 0.133
- relative viability (NCI-H1944; first compound 0.02 µM): 0.0967
- relative viability (A-427; first compound 0.0002 µM): 0.324
- relative viability (A-427; first compound 0.000632 µM): 0.328
- relative viability (A-427; first compound 0.002 µM): 0.165
- relative viability (A-427; first compound 0.006325 µM): 0.149
- relative viability (A-427; first compound 0.02 µM): 0.12
